Data from patent publication US11161818B2, “Quinolone derivatives, preparation methods and application thereof” (Hangzhou Normal University, priority 2019, dated 2021).
Structures can show the parent of a compound that is named as a salt.

How the values were obtained:
[1] = test system: MRSA (methicillin-resistant Staphylococcus aureus); assay: Bactericidal activity test, filter paper inhibition zone; format: cell-based; settings: filter paper diameter 6 mm, 37° C., 24 hours; for MRSA inhibition zone: sample concentration 10 mg/mL
Protocol: (§1) In order to determine the practicability of the compounds synthesized in this patent, some of the compounds are selected as representatives, and the bactericidal activity is determined by conventional methods. The specific operation procedures are as follows:
(§2) In a super clean bench, the preserved strains are transferred to a slant tube, cultured in an incubator at 37° C. for 24 hours, and then taken out and preserved at low temperature for antibacterial experiments. The well-grown colonies are scraped and transferred into a liquid medium with the inoculation ring, shaken to give a uniform mixture, and cultured in the incubator at 37° C. for 24 hours. The culture medium is poured into plates, about 15 ml for each plate, which are placed horizontally, and after solidification, placed upside down into the incubator at 37° C.; after two days, it is observed whether there is colony growth. If not, it can be used for the next experiment, otherwise, the plate needs to be poured again. 0.5 ml of bacterial suspension is pipetted into the plate, which is left to stand still for about 5 minutes, and then spread evenly with a coating rod; two duplicate plates are set for each kind of bacteria. In the super clean bench, the plates are divided equally and parallel groups are set. Each piece of filter paper (6 mm in diameter) is a paste. The filter paper is picked up with tweezers, dipped into a sample, taken out, placed at a given position of the plate, and gently pressed to make the filter paper firmly adhered thereto. The plate is placed (upside down) in the incubator for culture; the temperature is set at 37° C.; and after 24 hours culture, the plate is observed and the results are recorded.

E. coli = assay: as above; format: cell-based; settings: filter paper diameter 6 mm, 37° C., 24 hours; for E. coli activity inhibition zone: sample concentration 10 mg/mL
Protocol: as §1, §2

B. subtilis = assay: as above; format: cell-based, Bacillus subtilis; settings: filter paper diameter 6 mm, 37° C., 24 hours; for B. subtilis inhibition zone: sample concentration 10 mg/mL
Protocol: as §1, §2

S. aureus = assay: as above; format: cell-based, Staphylococcus aureus; settings: filter paper diameter 6 mm, 37° C., 24 hours; for S. aureus inhibition zone: sample concentration 10 mg/mL
Protocol: as §1, §2

[2] = test system: non-small cell lung cancer cells (HCC827); assay: Anti-tumor activity test, MTT method; format: cell-based; settings: concentration 0.5 mg/ml (DMSO as solvent), 44 + 4 hours culture
Protocol: (§3) For the anti-tumor activity test of these compounds, three kinds of common tumor cells are taken as research subjects: non-small cell lung cancer cells (HCC827), lung cancer cells (A549) and liver cancer cells (HepG2). Under the action of the new quinolone derivatives, the growth of the cells is observed, and the proliferation of tumor cells is measured by MTT method. The specific operation is as follows: the tumor cells are inoculated into 96-well culture plate in a particular amount of cells, with a cell density of 2×10^4 cells/ml; after overnight in the incubator with a concentration of 5% CO2 at 37° C., the screened samples are added (reference can be made to Table 1 for sample concentration; 10 μL/well of corresponding concentration of drugs are added to the dosing group, while 10 μL/well of PBS are added to the control group). After 44 hours of culture, 10 μL/well of MTT are added to continue the culture for 4 hours, which is dissolved with DMSO, shaken, and detected with a 570 nm enzyme-labeled instrument.

lung cancer cells (A549) = assay: Anti-tumor activity test, MTT method; format: cell-based; settings: concentration 0.5 mg/ml (DMSO as solvent), 44 + 4 hours culture
Protocol: as §3

[3] = test system: liver cancer cells (HepG2); assay: Anti-tumor activity test, MTT method; format: cell-based, human; settings: concentration 0.5 mg/ml (DMSO as solvent), 44 + 4 hours culture
Protocol: as §3

Compound	MRSA inhibition zone [1] [mm]	E. coli activity inhibition zone (E. coli) [mm]	B. subtilis inhibition zone (B. subtilis) [mm]	S. aureus inhibition zone (S. aureus) [mm]	also measured
CCOC(=O)c1cn(-c2ccc(Oc3ccc(Cl)c(Cl)c3)cc2)c2cc(Cl)c(F)cc2c1=O [Compound I-15, ethyl 7-chloro-1-(4-(3,4-dichlorophenoxy)phenyl)-6-fluoro-4-oxy-1,4-dihydroquinoline-3-carboxylate]	9	21	18	20	–
CCOC(=O)c1cn(-c2ccc(Oc3ccc(C)c(C)c3)cc2)c2cc(Cl)c(F)cc2c1=O [Compound I-17, ethyl 7-chloro-1-(4-(3,4-dimethylphenoxyl)phenyl)-6-fluoro-4-oxy-1,4-dihydroquinoline-3-carboxylate]	7	29	11	20	–
C[C@H]1COc2c(N3CCN(C)CC3)c(F)cc3c(=O)c(C(=O)O)cn1c23 [Control group, levofloxacin hydrochloride, reference compound]	–	–	–	–	zone of inhibition at 5000 µg/mL ([1]; Staphylococcus aureus, MRSA, control concentration 5 mg/mL): 12 mm; zone of inhibition at 5000 µg/mL (E. coli; Escherichia coli, control concentration 5 mg/mL): 25 mm; zone of inhibition at 5000 µg/mL (B. subtilis; Bacillus subtilis, control concentration 5 mg/mL): 22 mm; zone of inhibition at 5000 µg/mL (S. aureus; Staphylococcus aureus, control concentration 5 mg/mL): 26 mm
CCOC(=O)c1cn(-c2ccc(Oc3ccc(OC)cc3)cc2)c2cc(Cl)c(F)cc2c1=O [Compound I-11, ethyl 7-chloro-6-fluoro-1-(4-(4-methoxyphenoxy)phenyl)-4-oxy-1,4-dihydroquinoline-3-carboxylate]	7	22	13	11	–
CCOC(=O)c1cn(-c2ccc(Oc3ccc(OC(F)(F)F)cc3)cc2)c2cc(Cl)c(F)cc2c1=O [Compound I-12, ethyl 7-chloro-6-fluoro-1-(4-(4-trifluoromethoxyphenoxy)phenyl)-4-oxy-1,4-dihydroquinoline-3-carboxylate]	8	28	8	24	IC50 [2]: > 10 µM; IC50 (lung cancer cells (A549)): > 10 µM; IC50 [3]: 8.5 µM
CCOC(=O)c1cn(-c2ccc(Oc3ccc(C(C)(C)C)cc3)cc2)c2cc(Cl)c(F)cc2c1=O [Compound I-10, ethyl 7-chloro-6-fluoro-1-(4-(4-tert-butylphenoxy)phenyl)-4-oxy-1,4-dihydroquinoline-3-carboxylate]	14	24	20	20	–
CCOC(=O)c1cn(-c2ccc(Oc3ccc(C(F)(F)F)cc3)cc2)c2cc(Cl)c(F)cc2c1=O [Compound I-14, ethyl 7-chloro-6-fluoro-1-(4-(4-trifluoromethylphenoxy)phenyl)-4-oxy-1,4-dihydroquinoline-3-carboxylate]	12	27	15	20	–
CCOC(=O)c1cn(-c2ccc(Oc3ccccc3)cc2)c2cc(Cl)c(F)cc2c1=O [Compound I-4, ethyl 7-chloro-6-fluoro-4-oxy-1-(4-phenoxyphenyl)-1,4-dihydroquinoline-3-carboxylate]	9	27	23	19	–
CCOC(=O)c1cn(Cc2ccc(Oc3ccc(Cl)cc3)cc2)c2cc(Cl)c(F)cc2c1=O [Compound I-20, ethyl 7-chloro-1-(4-(4-chlorophenoxy)benzyl)-6-fluoro-4-oxy-1,4-dihydroquinoline-3-carboxylate]	10	24	12	21	–
CC(=O)O[C@H]1C(=O)[C@@]2(C)[C@H]([C@H](OC(=O)c3ccccc3)[C@]3(O)C[C@H](OC(=O)[C@H](O)[C@@H](NC(=O)c4ccccc4)c4ccccc4)C(C)=C1C3(C)C)[C@]1(OC(C)=O)CO[C@@H]1C[C@@H]2O [Paclitaxel, reference compound]	–	–	–	–	IC50 ([2]; Homo sapiens): 2.5 µM; IC50 (lung cancer cells (A549); Homo sapiens): 3.5 µM; IC50 ([3]; Homo sapiens): 1.5 µM
CCOC(=O)c1cn(Cc2ccc(Oc3ccccc3C)cc2)c2cc(Cl)c(F)cc2c1=O [Compound I-22, ethyl 7-chloro-1-(4-(2-methylphenoxy)benzyl)-6-fluoro-4-oxy-1,4-dihydroquinoline-3-carboxylate]	14	30	18	23	–
O=C(O)c1cn(-c2ccc(Oc3ccc(Cl)cc3)cc2)c2cc(Cl)c(F)cc2c1=O [Compound I-26, 7-chloro-1-(4-(4-chlorophenoxy)phenyl)-6-fluoro-4-oxy-1,4-dihydroquinoline-3-carboxylic acid]	15	29	24	29	IC50 [2]: 5 µM; IC50 (lung cancer cells (A549)): > 10 µM; IC50 [3]: 5 µM
COc1ccc(Oc2ccc(-n3cc(C(=O)O)c(=O)c4cc(F)c(Cl)cc43)cc2)cc1 [Compound I-28, 7-chloro-1-(4-(4-methoxyphenoxy)phenyl)-6-fluoro-4-oxy-1,4-dihydroquinoline-3-carboxylic acid]	11	25	28	29	–
CCOC(=O)c1cn(-c2ccc(Oc3ccc(F)cc3)cc2)c2cc(Cl)c(F)cc2c1=O [Compound I-7, ethyl 7-chloro-6-fluoro-1-(4-(4-fluorophenoxy)phenyl)-4-oxy-1,4-dihydroquinoline-3-carboxylate]	7	17	13	15	–
CCOC(=O)c1cn(-c2ccc(Oc3ccc(C)cc3)cc2)c2cc(Cl)c(F)cc2c1=O [Compound I-8, ethyl 7-chloro-6-fluoro-1-(4-(4-toluoxy)phenyl)-4-oxy-1,4-dihydroquinoline-3-carboxylate]	10	12	12	13	–
CCOC(=O)c1cn(-c2ccc(Oc3ccc(Cl)cc3)cc2)c2cc(Cl)c(F)cc2c1=O [Compound I-3, ethyl 7-chloro-1-(4-(4-chlorophenoxy)phenyl)-6-fluoro-4-oxy-1,4-dihydroquinoline-3-carboxylate]	8	24	18	20	IC50 [2]: 4.5 µM; IC50 (lung cancer cells (A549)): > 10 µM; IC50 [3]: 7.5 µM
